The values below come from patent US20240384268A1, “Oligonucleotides” (Hudson Institute of Medical Research, priority 2021, published 2024).

In the oligonucleotide strings, read from the 5' end, every base follows the letter of its sugar. An asterisk marks phosphorothioate; unmarked linkages are phosphodiester. Other units and linkages are bracketed, terminal groups are in braces. A string of capitals states the bases alone. d = 2'-deoxy (DNA); m = 2'-O-methyl

This data set concerns the target T1, human TLR7 (Homo sapiens, UniProt Q9NYK1).
T1 construct: HA; host or cells: 293XL-hTLR7-HA (HEK293)
T1 sequence (Q9NYK1 27-1049): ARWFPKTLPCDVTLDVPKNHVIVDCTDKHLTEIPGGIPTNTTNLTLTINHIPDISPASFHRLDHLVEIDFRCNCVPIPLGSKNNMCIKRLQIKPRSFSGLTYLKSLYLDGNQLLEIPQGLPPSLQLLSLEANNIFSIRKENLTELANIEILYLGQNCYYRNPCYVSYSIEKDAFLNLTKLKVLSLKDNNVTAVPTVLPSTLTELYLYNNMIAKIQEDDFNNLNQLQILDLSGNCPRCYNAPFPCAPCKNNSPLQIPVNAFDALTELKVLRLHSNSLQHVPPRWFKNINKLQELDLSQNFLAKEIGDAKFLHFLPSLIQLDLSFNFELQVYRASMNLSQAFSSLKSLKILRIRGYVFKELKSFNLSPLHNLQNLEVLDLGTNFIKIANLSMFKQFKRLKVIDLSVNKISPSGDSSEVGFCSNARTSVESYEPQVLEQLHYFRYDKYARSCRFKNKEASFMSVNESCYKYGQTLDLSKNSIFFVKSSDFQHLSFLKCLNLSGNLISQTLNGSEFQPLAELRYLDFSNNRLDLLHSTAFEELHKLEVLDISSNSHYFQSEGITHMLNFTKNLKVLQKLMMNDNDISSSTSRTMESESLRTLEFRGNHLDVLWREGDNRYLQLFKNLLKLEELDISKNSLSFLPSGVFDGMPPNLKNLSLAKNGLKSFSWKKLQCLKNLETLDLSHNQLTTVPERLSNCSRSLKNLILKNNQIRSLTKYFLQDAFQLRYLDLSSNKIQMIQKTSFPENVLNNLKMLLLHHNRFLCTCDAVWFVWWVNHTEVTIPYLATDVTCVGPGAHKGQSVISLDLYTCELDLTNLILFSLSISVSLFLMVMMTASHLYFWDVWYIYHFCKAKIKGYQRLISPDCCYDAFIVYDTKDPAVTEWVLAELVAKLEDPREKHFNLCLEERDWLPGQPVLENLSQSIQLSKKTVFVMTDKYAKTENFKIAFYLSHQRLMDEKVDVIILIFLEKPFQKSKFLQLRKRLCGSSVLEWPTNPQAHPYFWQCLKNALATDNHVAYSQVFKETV
The data set is described as follows: HEK-TLR7 NF-κB-luciferase reporter, R848 stimulation. The data set is classed as cell-based. The settings on record: for TLR7 100 nM (averaged NF-κB-Luciferase level relative to R848 condition): ASO 100 nM; for TLR7 100 nM (averaged NF-κB-Luciferase level relative to R848 condition) / TLR7 500 nM (averaged NF-κB-Luciferase level relative to R848 condition): relative to R848 only, given as fraction; for TLR7 500 nM (averaged NF-κB-Luciferase level relative to R848 condition): ASO 500 nM; for TLR7 400 nM: 3mer 2'OMe ASO at 400 nM; for TLR7 400 nM / TLR7 2 uM: value relative to Ligand only = 1.000, NT = 0.000; for TLR7 2 uM: 3mer 2'OMe ASO at 2 uM; for inhibition of TLR7 by 3-mer 2′OMe oligos (in words): 400 nM and 2 μM 3-mer, ~30 min, R848 1 μg/ml. A general note: A reporter such as luciferase makes a cellular process visible.

As for “GATAGCACCTTCAGCA (antisense; LNA-modified, pattern not given here) [CTNN2B-1294 LNA KL]”, the “TLR7 100 nM (averaged NF-κB-Luciferase level relative to R848 condition)” value is listed as 0.434 and the “TLR7 500 nM (averaged NF-κB-Luciferase level relative to R848 condition)” value was 0.049.
The matching figures for “TTTTGGCTGGGATCAA (antisense; LNA-modified, pattern not given here) [CAMSAP1-4697 LNA KL]”: 0.564 and 0.305.
The like results for “GCAGGCTCAGTGATGT (antisense; LNA-modified, pattern not given here) [CTNN2B-1642 LNA V1]” were, in that order, 0.676 and 0.189.
For “dC*dC*dA (CCA; listed as DNA, chemistry not fully specified)”, for the setting “HEK-TLR7”, the “TLR7 400 nM” value is listed as 1.270 and the “TLR7 2 uM” value is recorded as 0.780.
Consider mUmCmG (antisense mU*mC*mG) [660-3b], for which, where the note is “HEK-TLR7”, the “TLR7 400 nM” value amounted to 0.979 and the “TLR7 2 uM” value came out at 0.982.
Consider UUC (mU*mU*mC), for which, where the note is “HEK-TLR7”, the “TLR7 400 nM” value is reported as 0.536 and the “TLR7 2 uM” value is reported as 0.642.
The like results for GCU (mG*mC*mU) were, in that order, 1.339 and 0.852.
The matching figures for ACU (antisense mA*mC*mU): 1.322 and 0.916.
Turning to “TCGTAGTTGCTTCCTA (antisense; LNA-modified, pattern not given here) [MB21D1-1181 LNA KL]”, the “TLR7 100 nM (averaged NF-κB-Luciferase level relative to R848 condition)” value is 0.380 and the “TLR7 500 nM (averaged NF-κB-Luciferase level relative to R848 condition)” value is listed as 0.198.
The matching figures for “GCCATCCACTTGATAG (antisense; LNA-modified, pattern not given here) [EGFR-2874 LNA V1]”: 0.671 and 0.123.
With “dA*dA*dA (DNA AAA; listed as DNA, chemistry not fully specified)”, where the note is “HEK-TLR7”, the “TLR7 400 nM” value came out at 1.352 and the “TLR7 2 uM” value was determined as 0.867.
For “GCCATGCTGGCTCGGA (antisense; LNA-modified, pattern not given here) [CAMSAP1-2584 LNA V1]”, the “TLR7 100 nM (averaged NF-κB-Luciferase level relative to R848 condition)” value worked out at 0.638 and the “TLR7 500 nM (averaged NF-κB-Luciferase level relative to R848 condition)” value is 0.175.
Take “mGmUmU (mG*mU*mU) [GUU, 3-mer 2′OMe PS oligo]”: where the note is “HEK-TLR7”, the “TLR7 400 nM” value was determined as 0.781, the “TLR7 2 uM” value is recorded as 0.119 and the “inhibition of TLR7 by 3-mer 2′OMe oligos (in words)” value (“inhibition of TLR7” below) is “inhibiting TLR7”.
On to “CAACACTTCGTGGGGT (antisense; LNA-modified, pattern not given here) [HPRT LNA-667 V1]”, for which the “TLR7 100 nM (averaged NF-κB-Luciferase level relative to R848 condition)” value worked out at 0.663 and the “TLR7 500 nM (averaged NF-κB-Luciferase level relative to R848 condition)” value worked out at 0.476.
On to UUU (mU*mU*mU), for which, where the note is “HEK-TLR7”, the “TLR7 400 nM” value amounted to 0.861 and the “TLR7 2 uM” value is listed as 1.084.
The matching figures for UAU (mU*mA*mU): 1.086 and 0.935.
As to “GTATCGAAAGAGTCTG (antisense; LNA-modified, pattern not given here) [EGFR-3908 LNA KL]”, the “TLR7 100 nM (averaged NF-κB-Luciferase level relative to R848 condition)” value is 0.562 and the “TLR7 500 nM (averaged NF-κB-Luciferase level relative to R848 condition)” value was 0.113.
mCmUmU (antisense mC*mU*mU) [660-3]: where the note is “HEK-TLR7”, the “TLR7 400 nM” value is given as 1.277 and the “TLR7 2 uM” value is on record as 0.913.
For CAU (mC*mA*mU), under “HEK-TLR7”, the “TLR7 400 nM” value is 1.288 and the “TLR7 2 uM” value came out at 0.995.
The matching figures for UUA (mU*mU*mA): 0.997 and 1.042.
As to UAA (mU*mA*mA), where the note is “HEK-TLR7”, the “TLR7 400 nM” value is reported as 1.126 and the “TLR7 2 uM” value is 1.029.
As for “TGGCCTCCCATCTCCT (antisense; LNA-modified, pattern not given here) [HPRT LNA-329 V1]”, the “TLR7 100 nM (averaged NF-κB-Luciferase level relative to R848 condition)” value is reported as 0.877 and the “TLR7 500 nM (averaged NF-κB-Luciferase level relative to R848 condition)” value worked out at 0.217.
“mGmUmC (mG*mU*mC) [GUC, 3-mer 2′OMe PS oligo]”: under “HEK-TLR7”, the “TLR7 400 nM” value is on record as 0.140, the “TLR7 2 uM” value is reported as 0.017 and the “inhibition of TLR7” value was “most potent 3-mer inhibiting TLR7”.
Turning to “mUmGmG (mU*mG*mG) [UGG, 3-mer 2′OMe PS oligo]”, under “HEK-TLR7”, the “TLR7 400 nM” value came to 1.029 and the “TLR7 2 uM” value was found to be 0.989.
The like results for UAG (mU*mA*mG) were, in that order, 1.158 and 0.918.
The like results for AGU (antisense mA*mG*mU) were, in that order, 1.025 and 0.952.
On to “dC*dG*dA (CGA; listed as DNA, chemistry not fully specified)”, for which, for the setting “HEK-TLR7”, the “TLR7 400 nM” value amounted to 1.112 and the “TLR7 2 uM” value is 0.907.
Turning to UGC (mU*mG*mC), for the setting “HEK-TLR7”, the “TLR7 400 nM” value was 1.057 and the “TLR7 2 uM” value amounted to 0.782.
The matching figures for “dA*dA*dG (DNA AAG; listed as DNA, chemistry not fully specified)”: 1.247 and 0.876.
The like results for “dC*dC*dG (CCG; listed as DNA, chemistry not fully specified)” were, in that order, 1.227 and 1.006.
On to “GTTCAGTCCTGTCCAT (antisense; LNA-modified, pattern not given here) [HPRT LNA-292 V1]”, for which the “TLR7 100 nM (averaged NF-κB-Luciferase level relative to R848 condition)” value is recorded as 0.456 and the “TLR7 500 nM (averaged NF-κB-Luciferase level relative to R848 condition)” value was determined as 0.114.
For “mG*mG*mU*A*T*C*C*C*C*C*C*C*C*C*C*C*C*C*C*C (GGUATCCCCCCCCCCCCCCC; antisense; sugars from the 5' end m3 d17, all phosphorothioate, methylation of C not given here) [[C2]Mut1-dC]”, the “inhibition of R848 sensing by TLR7, short pre-treatment (in words)” value (HEK-TLR7, 100-500 nM oligo 20-50 min before R848 1 μg/ml) was “significantly higher TLR7 inhibition than dC20”.
On to CUG (mC*mU*mG), for which, under “HEK-TLR7”, the “TLR7 400 nM” value is recorded as 1.405 and the “TLR7 2 uM” value came out at 0.804.
In the case of “TGATGGCCTCCCATCT (antisense; LNA-modified, pattern not given here) [HPRT LNA-332 V1]”, the “TLR7 100 nM (averaged NF-κB-Luciferase level relative to R848 condition)” value is given as 0.657 and the “TLR7 500 nM (averaged NF-κB-Luciferase level relative to R848 condition)” value is on record as 0.153.
The like results for “CCAAGATCAGCAGTCT (antisense; LNA-modified, pattern not given here) [CTNN2B-2341 LNA KL]” were, in that order, 0.882 and 0.697.
For “TTCGTGGGGTCCTTTT (antisense; LNA-modified, pattern not given here) [HPRT LNA-661 V1]”, the “TLR7 100 nM (averaged NF-κB-Luciferase level relative to R848 condition)” value was 0.487 and the “TLR7 500 nM (averaged NF-κB-Luciferase level relative to R848 condition)” value was 0.178.
Turning to “mGmUmG (mG*mU*mG) [GUG, 3-mer 2′OMe PS oligo]”, for the setting “HEK-TLR7”, the “TLR7 400 nM” value worked out at 0.449, the “TLR7 2 uM” value is reported as 0.072 and the “inhibition of TLR7” value was “inhibiting TLR7”.
On to AUA (antisense mA*mU*mA), for which, where the note is “HEK-TLR7”, the “TLR7 400 nM” value amounted to 1.171 and the “TLR7 2 uM” value was found to be 0.905.
On to “TGTGATGGCCTCCCAT (antisense; LNA-modified, pattern not given here) [HPRT LNA-334 V1]”, for which the “TLR7 100 nM (averaged NF-κB-Luciferase level relative to R848 condition)” value came out at 0.315 and the “TLR7 500 nM (averaged NF-κB-Luciferase level relative to R848 condition)” value amounted to 0.090.
Consider “dA*dC*dA (DNA ACA; listed as RNA, chemistry not fully specified)”, for which, under “HEK-TLR7”, the “TLR7 400 nM” value stood at 1.234 and the “TLR7 2 uM” value turned out to be 0.831.
The matching figures for “dC*dA*dC (CAC; listed as RNA, chemistry not fully specified)”: 1.330 and 0.932.
For “mUmCmA (mU*mC*mA) [UCA, 3-mer 2′OMe PS oligo]”, for the setting “HEK-TLR7”, the “TLR7 400 nM” value was 1.122 and the “TLR7 2 uM” value was 0.819.
